# Measurements: PubChem BioAssay (NCI)
#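 Where inhibition never reached the appropriate level, the endpoint shown equals the highest concentration tested. Otherwise, values were interpolated linearly from a five-concentration, 48-hour dose response in 96-well plates. TGI marks complete inhibition of growth.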
# How the values were obtained:
# Assay in all cases: NCI-60 cell line screen, 48 h
# [1] = system: 786-0 renal
# [2] = system: A498 renal
# [3] = system: A549 NSCLC
# [4] = system: ACHN renal
# [5] = system: BT-549 breast
# [6] = system: CAKI-1 renal
# [7] = system: CCRF-CEM leukemia
# [8] = system: COLO 205 colon
# [9] = system: DU-145 prostate
# [10] = system: EKVX NSCLC
# [11] = system: HCC-2998 colon
# [12] = system: HCT-116 colon
# [13] = system: HCT-15 colon
# [14] = system: HL-60(TB) leukemia
# [15] = system: HOP-62 NSCLC
# [16] = system: HOP-92 NSCLC
# [17] = system: HS 578T breast
# [18] = system: HT29 colon
# [19] = system: IGROV1 ovarian
# [20] = system: K-562 leukemia
# [21] = system: KM12 colon
# [22] = system: LOX IMVI melanoma
# [23] = system: M14 melanoma
# [24] = system: MALME-3M melanoma
# [25] = system: MCF7 breast
# [26] = system: MDA-MB-231 breast
# [27] = system: MDA-MB-435
# [28] = system: MDA-N
# [29] = system: MOLT-4 leukemia
# [30] = system: NCI-H226 lung
# [31] = system: NCI-H23 lung
# [32] = system: NCI-H460 lung
# [33] = system: NCI-H522 lung
# [34] = system: NCI/ADR-RES ovarian
# [35] = system: OVCAR-3 ovarian
# [36] = system: OVCAR-4 ovarian
# [37] = system: OVCAR-5 ovarian
# [38] = system: OVCAR-8 ovarian
# [39] = system: PC-3 prostate
# [40] = system: RPMI-8226 leukemia
# [41] = system: RXF 393 renal
# [42] = system: SF-268 CNS
# [43] = system: SF-295 CNS
# [44] = system: SF-539 CNS
# [45] = system: SK-MEL-2 melanoma
# [46] = system: SK-MEL-28 melanoma
# [47] = system: SK-MEL-5 melanoma
# [48] = system: SK-OV-3 ovarian
# [49] = system: SN12C renal
# [50] = system: SNB-19 CNS
# [51] = system: SNB-75 CNS
# [52] = system: SR leukemia
# [53] = system: SW-620 colon
# [54] = system: T-47D breast
# [55] = system: U251 CNS
# [56] = system: UACC-257 melanoma
# [57] = system: UACC-62 melanoma
# [58] = system: UO-31 renal
# [59] = system: TK-10 renal
smiles,measurement,setting,value
c1ccc(COCC23CCN(Cc4ccccc4)C(CC(OCc4ccccc4)C2)S3)cc1 (stereo unspecified),TGI,[1],> 100 µM
same,TGI,[2],> 100 µM
same,TGI,[3],> 100 µM
same,TGI,[4],> 100 µM
same,TGI,[5],> 100 µM
same,TGI,[6],> 100 µM
same,TGI,[7],> 100 µM
same,TGI,[8],> 100 µM
same,TGI,[9],> 100 µM
same,TGI,[10],> 100 µM
same,TGI,[11],> 100 µM
same,TGI,[12],> 100 µM
same,TGI,[13],> 100 µM
same,TGI,[14],45.4 µM
same,TGI,[15],> 100 µM
same,TGI,[16],87.4 µM
same,TGI,[17],> 100 µM
same,TGI,[18],> 100 µM
same,TGI,[19],> 100 µM
same,TGI,[20],> 100 µM
same,TGI,[21],> 100 µM
same,TGI,[22],> 100 µM
same,TGI,[23],> 100 µM
same,TGI,[24],> 100 µM
same,TGI,[25],59.9 µM
same,TGI,[26],> 100 µM
same,TGI,[27],> 100 µM
same,TGI,[28],> 100 µM
same,TGI,[29],69.9 µM
same,TGI,[30],> 100 µM
same,TGI,[31],95.9 µM
same,TGI,[32],> 100 µM
same,TGI,[33],72.7 µM
same,TGI,[34],> 100 µM
same,TGI,[35],> 100 µM
same,TGI,[36],> 100 µM
same,TGI,[37],> 100 µM
same,TGI,[38],> 100 µM
same,TGI,[39],> 100 µM
same,TGI,[40],> 100 µM
same,TGI,[41],> 100 µM
same,TGI,[42],> 100 µM
same,TGI,[43],> 100 µM
same,TGI,[44],> 100 µM
same,TGI,[45],> 100 µM
same,TGI,[46],> 100 µM
same,TGI,[47],32.3 µM
same,TGI,[48],> 100 µM
same,TGI,[49],> 100 µM
same,TGI,[50],> 100 µM
same,TGI,[51],> 100 µM
same,TGI,[52],63.7 µM
same,TGI,[53],> 100 µM
same,TGI,[54],> 100 µM
same,TGI,[55],> 100 µM
same,TGI,[56],> 100 µM
same,TGI,[57],> 100 µM
same,TGI,[58],> 100 µM
NCC(=O)C(O)C(O)C(O)CO (stereo unspecified),TGI,[1],> 100 µM
same,TGI,[2],> 100 µM
same,TGI,[3],> 100 µM
same,TGI,[4],> 100 µM
same,TGI,[5],> 100 µM
same,TGI,[6],> 100 µM
same,TGI,[7],> 100 µM
same,TGI,[8],> 100 µM
same,TGI,[9],> 100 µM
same,TGI,[10],> 100 µM
same,TGI,[11],> 100 µM
same,TGI,[12],> 100 µM
same,TGI,[13],> 100 µM
same,TGI,[14],> 100 µM
same,TGI,[15],> 100 µM
same,TGI,[16],> 100 µM
same,TGI,[17],> 100 µM
same,TGI,[18],> 100 µM
same,TGI,[19],> 100 µM
same,TGI,[20],> 100 µM
same,TGI,[21],> 100 µM
same,TGI,[22],> 100 µM
same,TGI,[23],> 100 µM
same,TGI,[24],> 100 µM
same,TGI,[25],> 100 µM
same,TGI,[26],> 100 µM
same,TGI,[27],> 100 µM
same,TGI,[28],> 100 µM
same,TGI,[29],> 100 µM
same,TGI,[30],> 100 µM
same,TGI,[31],> 100 µM
same,TGI,[32],> 100 µM
same,TGI,[33],> 100 µM
same,TGI,[34],> 100 µM
same,TGI,[35],> 100 µM
same,TGI,[36],> 100 µM
same,TGI,[37],> 100 µM
same,TGI,[38],> 100 µM
same,TGI,[39],> 100 µM
same,TGI,[40],> 100 µM
same,TGI,[41],> 100 µM
same,TGI,[42],> 100 µM
same,TGI,[43],> 100 µM
same,TGI,[44],> 100 µM
same,TGI,[45],> 100 µM
same,TGI,[46],> 100 µM
same,TGI,[47],> 100 µM
same,TGI,[48],> 100 µM
same,TGI,[49],> 100 µM
same,TGI,[50],> 100 µM
same,TGI,[51],> 100 µM
same,TGI,[52],> 100 µM
same,TGI,[53],> 100 µM
same,TGI,[54],> 100 µM
same,TGI,[59],> 100 µM
same,TGI,[55],> 100 µM
same,TGI,[56],> 100 µM
same,TGI,[57],> 100 µM
same,TGI,[58],> 100 µM
COc1cccc2c1C(=O)C(=O)c1c-2oc(=O)c2cc(C)cc(OC)c12,TGI,[1],> 75 µM
same,TGI,[2],> 75 µM
same,TGI,[3],> 75 µM
same,TGI,[4],> 75 µM
same,TGI,[5],26 µM
same,TGI,[6],> 75 µM
same,TGI,[7],> 75 µM
same,TGI,[8],> 75 µM
same,TGI,[9],27.9 µM
same,TGI,[10],> 75 µM
same,TGI,[11],37.6 µM
same,TGI,[12],> 75 µM
same,TGI,[13],27.7 µM
same,TGI,[14],49.9 µM
same,TGI,[15],32.4 µM
same,TGI,[16],> 75 µM
same,TGI,[17],55.1 µM
same,TGI,[18],> 75 µM
same,TGI,[19],32 µM
same,TGI,[20],> 75 µM
same,TGI,[21],53.9 µM
same,TGI,[22],26.5 µM
same,TGI,[23],> 75 µM
same,TGI,[24],> 75 µM
same,TGI,[25],72.5 µM
same,TGI,[26],70.6 µM
same,TGI,[27],26.1 µM
same,TGI,[28],38.7 µM
same,TGI,[29],74.3 µM
same,TGI,[30],> 75 µM
same,TGI,[31],58.4 µM
same,TGI,[32],> 75 µM
same,TGI,[33],26.5 µM
same,TGI,[34],31.7 µM
same,TGI,[35],27.2 µM
same,TGI,[36],26.7 µM
same,TGI,[37],> 75 µM
same,TGI,[38],30.6 µM
same,TGI,[39],> 75 µM
same,TGI,[40],62.4 µM
same,TGI,[41],42.8 µM
same,TGI,[42],41.8 µM
same,TGI,[43],> 75 µM
same,TGI,[44],> 75 µM
same,TGI,[45],35.1 µM
same,TGI,[46],> 75 µM
same,TGI,[47],35.6 µM
same,TGI,[48],> 75 µM
same,TGI,[49],> 75 µM
same,TGI,[50],> 75 µM
same,TGI,[51],55.7 µM
same,TGI,[52],> 75 µM
same,TGI,[53],> 75 µM
same,TGI,[54],> 75 µM
same,TGI,[59],> 75 µM
same,TGI,[55],23.2 µM
same,TGI,[56],32.4 µM
same,TGI,[57],> 75 µM
same,TGI,[58],> 75 µM
CCOC(=O)CSc1nc2ccccc2c(=O)n1N,TGI,[1],> 100 µM
same,TGI,[2],> 100 µM
same,TGI,[3],> 100 µM
same,TGI,[4],> 100 µM
same,TGI,[5],> 100 µM
same,TGI,[6],> 100 µM
same,TGI,[8],> 100 µM
same,TGI,[9],> 100 µM
same,TGI,[10],> 100 µM
same,TGI,[11],> 100 µM
same,TGI,[12],> 100 µM
same,TGI,[13],> 100 µM
same,TGI,[16],> 100 µM
same,TGI,[17],> 100 µM
same,TGI,[18],> 100 µM
same,TGI,[19],> 100 µM
same,TGI,[20],> 100 µM
same,TGI,[21],> 100 µM
same,TGI,[22],> 100 µM
same,TGI,[23],> 100 µM
same,TGI,[24],> 100 µM
same,TGI,[25],> 100 µM
same,TGI,[26],> 100 µM
same,TGI,[27],> 100 µM
same,TGI,[28],> 100 µM
same,TGI,[29],> 100 µM
same,TGI,[30],> 100 µM
same,TGI,[31],> 100 µM
same,TGI,[32],> 100 µM
same,TGI,[33],> 100 µM
same,TGI,[34],> 100 µM
same,TGI,[35],> 100 µM
same,TGI,[36],> 100 µM
same,TGI,[37],> 100 µM
same,TGI,[38],> 100 µM
same,TGI,[39],> 100 µM
same,TGI,[40],> 100 µM
same,TGI,[41],> 100 µM
same,TGI,[42],> 100 µM
same,TGI,[43],> 100 µM
same,TGI,[44],> 100 µM
same,TGI,[45],> 100 µM
same,TGI,[46],> 100 µM
same,TGI,[47],> 100 µM
same,TGI,[49],> 100 µM
same,TGI,[50],> 100 µM
same,TGI,[51],> 100 µM
same,TGI,[52],> 100 µM
same,TGI,[53],> 100 µM
same,TGI,[54],> 100 µM
same,TGI,[59],> 100 µM
same,TGI,[55],> 100 µM
same,TGI,[56],> 100 µM
same,TGI,[57],> 100 µM
same,TGI,[58],> 100 µM
